Literature values as cited in patent US20140148379A1, “Control of Unwanted Bacteria in Fermentation Systems with Bacteriocin” (priority 2012, published 2014).

Test system: Staphylococcus aureus
Settings: nisin combined with the endolysin produced by Staphylococcal phage; contaminated milk

## nisin
  effect of combination: strong synergistic effect
